According to EP4635954A1, “INDUCER FOR INDUCING MESENCHYMAL-EPITHELIAL TRANSITION AND REPROGRAMMING” (Iregene Therapeutics Co., Ltd, priority 2022, dated 2024):

Molecular target: miR-145
Assay: Isothermal titration calorimetry (ITC), Nano-ITC
Assay type: binding
Conditions: Multiple Sites model, 50 µM miR-145 in cell, 500 µM ligand in syringe
Text: Isothermal titration calorimetry (ITC) operates based on the principle of power compensation and allows accurate determination of the enthalpy change associated with molecular interactions across a broad concentration range using a single titration experiment. It measures the heat change upon binding and provides a complete thermodynamic profile of nucleic acid-ligand interactions. Quantitative thermodynamic characterization of the complex is essential for understanding the molecular basis of the interaction between the microRNA miR-145 and the small molecule compound. In this invention, the Nano-ITC calorimeter from Waters Corporation was used to validate in vitro the interaction between nucleic acid and small molecule compounds. The experimental procedure involved placing 300 µL of singlestranded miR-145 solution at a concentration of 50 µM into a temperature-controlled sample cell, which was thermally coupled via a thermocouple circuit to a reference cell containing an equal volume of deionized water. As an example, the small molecule A-3-6 was prepared at a concentration of 500 µM and a volume of 50 µL, and loaded into the injection syringe as the ligand. The heat change in the sample cell was measured and balanced against the reference cell, appearing as either endothermic or exothermic peaks. […]

O=C(Cc1ccccc1)Nc1cc2cc[nH]c2cn1 [Compound A-3-6, 2-Phenyl-N-(1H-pyrrolo[2,3-c]pyridin-5-yl)acetamide]
Kd (site with nSite 1.8): 7.54 nM
Kd (site with nSite 3): 70.2 nM
